This note sets out measurements from publication PMC9833666, “Designing and identifying β-hairpin peptide macrocycles with antibiotic potential” (Science Advances, 2023).

The experiment concerns Escherichia coli W3110. In kind it is cell-based. Particulars: for Ec W3110 MIC MH: E. coli W3110, MH medium; for Ec W3110 MIC RPMI: E. coli W3110, RPMI medium.

Bridge positions count the residues as written; N and C are the ends. Peptide text beside a SMILES is read from it.

Turning to `CC[C@H](C)[C@@H]1NC(=O)[C@H](CCCNC(=N)N)NC(=O)[C@H](C(C)C)NC(=O)[C@@H](N)CSSC[C@@H](C(=O)O)NC(=O)[C@H](C(C)C)NC(=O)[C@H](CCC(N)=O)NC(=O)[C@H](CC(C)C)NC(=O)[C@H](CO)NC(=O)[C@H](C(C)C)NC(=O)[C@H](CCCCN)NC(=O)[C@H](C(C)C)NC(=O)CNC(=O)[C@H](CO)NC(=O)[C@H](CCCNC(=N)N)NC(=O)[C@H](CCCNC(=N)N)NC(=O)[C@H](CC(N)=O)NC(=O)[C@H](CC(N)=O)NC(=O)[C@H](C(C)C)NC(=O)[C@H](CCCNC(=N)N)NC1=O` [SySA-38] (H-CVRIRVNNRRSGVKVSLQVC-OH; disulfide 1-20; N-terminus and C-terminus assumed), the Ec W3110 MIC MH stood at 256 µg/mL and the Ec W3110 MIC RPMI turned out to be 8 µg/mL. Under “W3110”, the “W3110 MIC MH” value is 256 µg/mL and the “W3110 MIC RPMI” value came out at 8 µg/mL.

In turn, `CC[C@H](C)[C@@H]1NC(=O)[C@H](CCCCN)NC(=O)[C@H](CC(C)C)NC(=O)CNC(=O)[C@H](CCCNC(=N)N)NC(=O)[C@H](CCCNC(=N)N)NC(=O)[C@H](CCCNC(=N)N)NC(=O)[C@H](CC(N)=O)NC(=O)[C@H](CC(N)=O)NC(=O)[C@H](CC(C)C)NC(=O)[C@H](CCCNC(=N)N)NC(=O)[C@H](C(C)C)NC(=O)[C@H](CCCNC(=N)N)NC(=O)[C@H](C(C)C)NC(=O)[C@@H](N)CSSC[C@@H](C(=O)O)NC(=O)[C@H](C(C)C)NC(=O)[C@H](CCC(N)=O)NC(=O)[C@H](CC(C)C)NC(=O)[C@H]([C@@H](C)O)NC1=O` [SySA-88] (H-CVRVRLNNRRRGLKITLQVC-OH; disulfide 1-20; N-terminus and C-terminus assumed) registered an Ec W3110 MIC MH of 32 µg/mL and an Ec W3110 MIC RPMI of 8 µg/mL. For the same molecule, where the note is “W3110”, the “W3110 MIC MH” value is 32 µg/mL and the “W3110 MIC RPMI” value turned out to be 8 µg/mL.

On to `CC[C@H](C)[C@@H]1NC(=O)[C@H](CCCNC(=N)N)NC(=O)[C@H](CC(C)C)NC(=O)[C@H](CCCNC(=N)N)NC(=O)[C@H](CO)NC(=O)[C@H](CCCNC(=N)N)NC(=O)[C@H](CCCNC(=N)N)NC(=O)[C@H](CC(=O)O)NC(=O)[C@H](CC(N)=O)NC(=O)[C@H](CC(C)C)NC(=O)[C@H](CCCNC(=N)N)NC(=O)[C@H](C(C)C)NC(=O)[C@H]([C@@H](C)O)NC(=O)[C@H](C(C)C)NC(=O)[C@@H](N)CSSC[C@@H](C(=O)O)NC(=O)[C@H](C(C)C)NC(=O)[C@H](CCC(=O)O)NC(=O)[C@H](CC(C)C)NC(=O)[C@H]([C@@H](C)O)NC1=O` [SyRA-15] (H-CVTVRLNDRRSRLRITLEVC-OH; disulfide 1-20), for which the “W3110 MIC” value (W3110) was above 256 µg/mL.

Turning to `CC(C)C[C@@H]1NC(=O)[C@H](CCCNC(=N)N)NC(=O)[C@H](C(C)C)NC(=O)[C@H]([C@@H](C)O)NC(=O)[C@H](CC(C)C)NC(=O)[C@@H](N)CSSC[C@@H](C(=O)O)NC(=O)[C@H](C(C)C)NC(=O)[C@H](CCC(N)=O)NC(=O)[C@H](C(C)C)NC(=O)[C@H](CO)NC(=O)[C@H](C(C)C)NC(=O)[C@H](CCCCN)NC(=O)[C@H](C(C)C)NC(=O)CNC(=O)[C@H](CCCNC(=N)N)NC(=O)[C@H](CCCNC(=N)N)NC(=O)[C@H](CCCNC(=N)N)NC(=O)[C@H](CC(N)=O)NC(=O)[C@H](CC(N)=O)NC1=O` [SySA-81] (H-CLTVRLNNRRRGVKVSVQVC-OH; disulfide 1-20; N-terminus and C-terminus assumed), the Ec W3110 MIC MH stood at 64 µg/mL and the Ec W3110 MIC RPMI was 32 µg/mL. For the same molecule, for the setting “W3110”, the “W3110 MIC MH” value was determined as 64 µg/mL and the “W3110 MIC RPMI” value is 32 µg/mL.
